Laboratory results reported in US5308840A, “Substituted or unsubstituted benzhydryl heteroalkyl-substituted aminophenol compounds and pharmaceutical compositions thereof” (Green Cross Corporation, priority 1991, dated 1994).
≈ marks a conversion by molar mass, not a printed value.

Assays:
[1] = tested on: TPA-induced mouse ear edema; experiment: Effect on TPA-induced mouse ear edema test; format: in vivo, male ICR mice; settings: inhibition of ear edema (ear weight difference) vs control; TPA 1 μg/20 μl, topical; drug dissolved in TPA solution (100 μg/20 ml); 5 hours
Method: Effect on TPA-induced mouse ear edema test
Male ICR mice weighing about 20 g were etherized, and fixed at the dorsal position. TPA (12-O-tetradecanoylphorbol-13-acetate: phorbol 12-myristate-13-acetate, 1 μg/20 μl) dissolved in a mixed solution of acetone: pyridine: water (97:2:1) was coated on the left year while drying with a dryer. Five hours later, the mice were slaughtered by vertebral dislocation. The both ears were stamped out with a circle chisel (punch), and weighed. The weight difference between the both ears was taken as an index of the degree of edema, and the percent inhibition was calculated from the comparison with the control. Each drug was dissolved in TPA solution (100 μg/20 ml).

[2] = tested on: lipoperoxide production in rat cerebral tissues; experiment: Inhibition of lipoperoxide production in rat cerebral tissues (TBA reaction in cerebral tissue homogenate); format: biochemical; settings: 37° C., 120 minutes, test concentrations 10, 1, 0.1, 0.01, 0.001 μg/ml, absorbance 535 nm, least square method
Method: Inhibition of lipoperoxide production in rat cerebral tissues
(1) Preparation of cerebral tissue homogenate
A rat was slaughtered with carbon dioxide, and immediately after blood sampling from the heart, brain was removed and weighed. A 5% (w/v) tissue homogenate was prepared by a homogenizer with PBS (pH 7.3). Homogenation was conducted two times for 15 seconds (scale 10) while cooling.
(2) Inhibition of lipoperoxide production in rat cerebral 4issues.
Each of the test drugs (50 μl, concentration 10, 1, 0.1, 0.01, 0.001 μg/ml) was placed in a polypropylene tube, to which was added cerebral tissue homogenate (1 ml), followed by incubation at 37° C. in a thermobath for 120 minutes. Thereafter, 1% phosphoric acid (0.3 ml), 10% phosphotungstic acid (0.2 ml) and 0.67% TBA (tiobarbituric acid) agent (1 ml) were added thereto while stirring as necessary, and immediately thereafter, TBA reaction was conducted in a boiling water bath for 20 minutes. The mixture was cooled in ice water for 5 minutes, and added with n-butanol (4 ml). After 10 minutes' shaking extraction, it was centrifuged at 3000 rpm and at room temperature (low temperature causes change of absorbance) for 10 minutes. The absorbance of the butanol layer (upper layer) was measured at a wavelength of 535 nm. The difference between the absorbance of the control incubated at 37° C. (added with dimethylsulfoxide only) and that of the control cooled at 2° C. (added with dimethylsulfoxide only) was taken as the amount of 100% lipoperoxide production, and the percent suppression of the drug was calculated from the following formula. [formula] wherein A is the difference of absorbance of 37° C. control and 2° C. control, and B is the difference of absorbance of a drug sample and 2° C. control. The IC50 (μg/ml) was calculated by least square method using the percent inhibition at each concentration.

Structure (SMILES)	Inhibition (%) [1] [%]	IC50 [2] [µg/mL]
CN1CCN(C(c2ccc(Cl)cc2)c2ccc(O)c(N(C)C)c2)CC1 (stereo not drawn) [Compound 3, 4-[1-(4-chlorophenyl)-1-(4-methylpiperazino)]methyl-2-dimethylaminophenol]	71.1	
Cc1cc(NCCCN2CCN(C(c3ccccc3)c3ccc(Cl)cc3)CC2)c(O)c(C(C)(C)C)c1 (stereo not drawn) [Compound 20, 6-tert-butyl-2-[3-[4-(4-chlorobenzhydryl)piperazino]propyl]amino-4-methylphenol]	63.8	0.066 (≈ 0.13 µM)
Cc1ccc(O)c(N(C)CCOC(c2ccccc2)c2ccccc2)c1 [Compound 10]		0.23 (≈ 0.662 µM)
Cc1ccc(O)c(NCCCN2CCC(C(O)(c3ccccc3)c3ccccc3)CC2)c1 [Compound 18, 2-[3-(4-hydroxydiphenylmethyl-1-piperidinyl)propyl]amino-4methylphenol]	89.0	0.029 (≈ 0.0673 µM)
CN(C)CCC(c1ccc(Cl)cc1)c1ccc(O)c(N(C)C)c1 (stereo not drawn) [Compound 6, 4-[1-(4-chlorophenyl)-3-dimethylaminopropyl]-2-dimethylaminophenol]	62.7	0.31 (≈ 0.931 µM)
Cc1ccc(O)c(N(CCCN2CCC(C(O)(c3ccccc3)c3ccccc3)CC2)C(C)C)c1 [Compound 23, 2-[N-[3-(4-hydroxydiphenylmethyl-1-piperidinyl)propyl]-N-isopropyl]amino-4-methylphenol]	39.2	0.79 (≈ 1.67 µM)
Cc1ccc(O)c(N(CCCN2CCN(C(c3ccccc3)c3ccc(Cl)cc3)CC2)C(C)C)c1 (stereo not drawn) [Compound 21, 2-[N-[3-[4-(4-chlorobenzhydryl)piperazino]propyl]-N-isopropyl]amino-4-methylphenol]	44.4	0.44 (≈ 0.894 µM)
CN(C)CCN(Cc1ccc(O)c(N(C)C)c1)c1ccccc1 [Compound 4, 2-dimethylamino-4-[N-(2-dimethylaminoethyl)-N-phenyl]aminomethylphenol]	75.0	
CN(C)c1cc(CN2CCN(C(c3ccccc3)c3ccc(Cl)cc3)CC2)ccc1O (stereo not drawn) [Compound 7, 4-[4-(4-chlorobenzhydryl)piperazino]methyl-2-dimethylaminophenol]	54.6	0.16 (≈ 0.367 µM)
Cc1ccc(O)c(NCCCN2CCC(C(O)(c3ccccc3)c3ccc(Cl)cc3)CC2)c1 (stereo not drawn) [Compound 26, 2-[3-[4-(4-chlorophenyl)hydroxyphenylmethyl-1-piperidinyl]propyl]amino-4-methylphenol]	97.5	
Cc1ccc(O)c(NCCCN2CCC(OC(c3ccccc3)c3ccccc3)CC2)c1 [Compound 19, 2-[3-(4-benzhydryloxy-1-piperidinyl)propyl]amino-4-methylphenol]	85.5	0.036 (≈ 0.0836 µM)
CN(C)CCOC(c1ccc(Cl)cc1)c1ccc(O)c(N(C)C)c1 (stereo not drawn) [Compound 1, 2-[1-(4-chlorophenyl)-1-(3-dimethylamino-4-hydroxyphenyl)methoxy]-N,N-dimethylethanamine]		0.39 (≈ 1.12 µM)
CN(C)CC=C(c1ccc(Cl)cc1)c1ccc(O)c(N(C)C)c1 [Compound 5, 1-(4-chlorophenyl)-3-dimethylamino-1-(3-dimethylamine-4-hydroxyphenyl)-1-propene]	75.0	0.20 (≈ 0.604 µM)
Cc1ccc(O)c(NC(C)CN2c3ccccc3Sc3ccccc32)c1 (stereo not drawn) [Compound 12, 2-[1-methyl-2-(phenothiazine-10-yl)ethyl]amino-4-methylphenol]	74.7	0.086 (≈ 0.237 µM)
Cc1ccc(O)c(NCCCN2CCCN(C(c3ccccc3)c3ccc(Cl)cc3)CC2)c1 (stereo not drawn) [Compound 17, 2-[3-[4-(4-chlorobenzhydryl)homopiperazino)propyl]amino-4-methylphenol]	87.0	0.013 (≈ 0.028 µM)
Cc1ccc(O)c(NCCCN2CCN(C(c3ccccc3)c3ccc(Cl)cc3)CC2)c1 (stereo not drawn) [Compound 15, 2-[3-[4-(4-chlorobenzhydryl)piperazino]propyl]amino-4-methylphenol]	86.7	0.12 (≈ 0.267 µM)
Cc1ccc(O)c(N(C)CCCN2CCN(C(c3ccccc3)c3ccccc3)CC2)c1 [Compound 16, 2-[N-[3-(4-benzhydrylpiperazino)propyl]-N-methyl]amino-4-methylphenol]	50.9	0.30 (≈ 0.698 µM)
Cc1ccc(O)c(NCCCN2CCN(C(c3ccc(F)cc3)c3ccc(F)cc3)CC2)c1 [Compound 32, 2-[3-[4-(4,4'-difluorobenzhydryl)piperazino]propyl]amino-4-methylphenol]	64.1	0.10 (≈ 0.221 µM)
Cc1ccc(O)c(NCCCN2CCN(C(c3ccccc3)c3ccccc3)CC2)c1 [Compound 14, 2-[3-(4-benzhydrylpiperazino)propyl]amino-4-methylphenol]	77.8	0.038 (≈ 0.0914 µM)
